Measurements from PMC10987797, “Functional characterization of Capsicum chinense vanillin aminotransferase: Detection of vanillylamine-forming activity from vanillin” (Biochemistry and Biophysics Reports, 2024).
Each block holds one compound with its values, some of them ahead of it.

Assays:
Format in all cases: biochemical
[1] = target: T1, VAMT (vanillin aminotransferase; rVAMT) (Capsicum chinense, UniProt O82521); experiment: HPLC assay of vanillylamine formation, Michaelis-Menten fit; settings: 0.1 mM PLP, 50 mM potassium phosphate pH 8.0, standard assay 30 °C, ping-pong
T1 construct: full length, N-terminal His6-tag (pET28a) cut off by thrombin; recombinant from E. coli Rosetta2 (DE3)
T1 sequence (O82521 whole entry): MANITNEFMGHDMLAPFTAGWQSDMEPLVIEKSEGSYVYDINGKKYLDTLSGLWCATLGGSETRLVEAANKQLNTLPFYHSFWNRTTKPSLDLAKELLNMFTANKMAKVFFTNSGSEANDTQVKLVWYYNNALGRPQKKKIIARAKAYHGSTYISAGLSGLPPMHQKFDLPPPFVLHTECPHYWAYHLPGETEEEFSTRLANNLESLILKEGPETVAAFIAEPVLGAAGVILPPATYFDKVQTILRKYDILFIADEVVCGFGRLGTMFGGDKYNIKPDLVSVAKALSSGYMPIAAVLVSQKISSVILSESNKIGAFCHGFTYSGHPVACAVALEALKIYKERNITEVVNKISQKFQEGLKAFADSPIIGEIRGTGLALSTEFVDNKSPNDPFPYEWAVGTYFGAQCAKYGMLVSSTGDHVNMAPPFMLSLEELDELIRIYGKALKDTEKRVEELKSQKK
Description: HPLC assay of vanillylamine formation, Michaelis-Menten fit on VAMT (vanillin aminotransferase; rVAMT)

[2] = target: T1, VAMT (vanillin aminotransferase; rVAMT); experiment: HPLC assay of vanillin formation, Michaelis-Menten fit; settings: 0.1 mM PLP, 50 mM potassium phosphate pH 8.0, standard assay 30 °C
Description: HPLC assay of vanillin formation, Michaelis-Menten fit on VAMT (vanillin aminotransferase; rVAMT)

[3] = target: T1, VAMT (vanillin aminotransferase; rVAMT); experiment: HPLC assay of vanillin glucoside formation, Michaelis-Menten fit; settings: 100 mM pyruvate as amino acceptor, 0.1 mM PLP, 50 mM potassium phosphate pH 8.0; standard assay 30 °C
Description: HPLC assay of vanillin glucoside formation, Michaelis-Menten fit on VAMT (vanillin aminotransferase; rVAMT)

[4] = target: T1, VAMT (vanillin aminotransferase; rVAMT); experiment: HPLC assay of vanillylamine glucoside formation, Michaelis-Menten fit; settings: 100 mM GABA as amino donor, 0.1 mM PLP, 50 mM potassium phosphate pH 8.0; standard assay 30 °C
Description: HPLC assay of vanillylamine glucoside formation, Michaelis-Menten fit on VAMT (vanillin aminotransferase; rVAMT)

Km [4]: 3.3 ± 0.56 mM
Structure (SMILES): COc1cc(C=O)ccc1O[C@@H]1O[C@H](CO)[C@@H](O)[C@H](O)[C@H]1O [VG]

Km ([1]; 100 mM GABA as amino donor): 0.48 ± 0.049 mM
Structure (SMILES): COc1cc(C=O)ccc1O [V]

Continued, compound first:

Structure (SMILES): NCCCC(=O)O [GABA]
Km ([1]; 5 mM vanillin as amino acceptor): 36 ± 2.1 mM

Structure (SMILES): CC(=O)C(=O)O [Na pyruvate]
Km ([2]; 5 mM vanillylamine as amino donor): 5.4 ± 0.34 mM

Structure (SMILES): COc1cc(CN)ccc1O[C@@H]1O[C@H](CO)[C@@H](O)[C@H](O)[C@H]1O [VAG]
Km [3]: 15 ± 4.8 mM

Structure (SMILES): COc1cc(CN)ccc1O [VA]
Km ([2]; 100 mM pyruvate as amino acceptor): 0.25 ± 0.037 mM
